From the CheMixHub viscosity set
Values joined by “and” are separate entries in the source; they are usually repeats but may differ in a detail not shown here. Identical values can stand only once.

Assay: xn = mol fraction of the nth substance listed

CNCCO + CCCCOCCO
viscosity, 101.3 kPa
Settings	293.15 K	298.15 K	303.15 K	308.15 K	313.15 K	318.15 K	323.15 K
x1 = 0.149	4.016 mPa·s	3.469 mPa·s	3.02 mPa·s	2.649 mPa·s	2.339 mPa·s	2.077 mPa·s	1.856 mPa·s
x1 = 0.403	5.748 mPa·s	4.862 mPa·s	4.158 mPa·s	3.584 mPa·s	3.112 mPa·s	2.725 mPa·s	2.401 mPa·s
x1 = 0.512	6.672 mPa·s and 6.73 mPa·s	5.591 mPa·s and 5.64 mPa·s	4.739 mPa·s and 4.78 mPa·s	4.054 mPa·s and 4.09 mPa·s	3.5 mPa·s and 3.53 mPa·s	3.045 mPa·s and 3.07 mPa·s	2.667 mPa·s and 2.69 mPa·s
x1 = 0.611	7.632 mPa·s	6.341 mPa·s	5.331 mPa·s	4.528 mPa·s	3.883 mPa·s	3.358 mPa·s	2.926 mPa·s
x1 = 0.702	8.54 mPa·s	7.04 mPa·s	5.87 mPa·s	4.95 mPa·s	4.22 mPa·s	3.63 mPa·s	3.15 mPa·s
x1 = 0.786	9.713 mPa·s	7.929 mPa·s	6.563 mPa·s	5.498 mPa·s	4.657 mPa·s	3.983 mPa·s	3.436 mPa·s
x1 = 0.934	12.07 mPa·s	9.674 mPa·s	7.893 mPa·s	6.525 mPa·s	5.461 mPa·s	4.621 mPa·s	3.948 mPa·s

CC(C)CCO + OCC(O)CO
viscosity [mPa·s], 100 kPa
Settings	x1 = 0.0692	x1 = 0.1425	x1 = 0.2195	x1 = 0.3027	x1 = 0.3954	x1 = 0.498	x1 = 0.6042	x1 = 0.7235	x1 = 0.8535
298.15 K	879.2	810.7	738.6	660.6	573.7	477.4	377.4	265	142.2
303.15 K	583.7	540.5	494.2	443.9	387.3	323.9	257.5	181.7	97.82
308.15 K	389.9	363	333.5	301.1	263.5	220.7	175.6	123.8	67.02

CC(CC(C)(C)C)CP(=O)(O)CC(C)CC(C)(C)C (stereo not given) + CCCCCC
298.15 K, 101 kPa
Settings	viscosity [mPa·s]
x1 = 0.0033	0.305
x1 = 0.0159	0.36
x1 = 0.0175	0.368
x2 = 0.0987	89.32
x2 = 0.1765	69.68
x2 = 0.2746	47.91
x2 = 0.4476	23.62
x2 = 0.642	9.432
x2 = 0.7262	5.982
x2 = 0.73	5.931
x2 = 0.796	3.39
x2 = 0.8384	2.461
x2 = 0.8555	2.122
x2 = 0.9097	1.221
x2 = 0.9111	1.203
x2 = 0.9623	0.504

CC(CC(C)(C)C)CP(=O)(O)CC(C)CC(C)(C)C (stereo not given) + ClC(Cl)(Cl)Cl
298.15 K, 101 kPa
Settings	viscosity [mPa·s]
x1 = 0.0063	0.961
x1 = 0.0131	1.04
x1 = 0.0159	1.076
x2 = 0.1192	98.3
x2 = 0.201	83.19
x2 = 0.3155	66.36
x2 = 0.5037	36.06
x2 = 0.6763	19.27
x2 = 0.7689	12.88
x2 = 0.7808	11.73
x2 = 0.8099	9.498
x2 = 0.86	5.932
x2 = 0.8741	4.951
x2 = 0.9286	2.263
x2 = 0.9325	2.124
x2 = 0.9717	1.255

Cc1cccc(Cl)c1 + CCOC(=O)c1ccccc1
viscosity [mPa·s], 101 kPa
Settings	303.15 K	313.15 K
x2 = 0.0789	0.775	0.672
x2 = 0.1831	0.822	0.711
x2 = 0.2348	0.851	0.734
x2 = 0.3353	0.913	0.782
x2 = 0.4121	0.973	0.827
x2 = 0.4871	1.043	0.881
x2 = 0.5629	1.122	0.938
x2 = 0.6364	1.212	1.006
x2 = 0.711	1.312	1.084
x2 = 0.7831	1.419	1.166
x2 = 0.8563	1.54	1.257
x2 = 0.9045	1.625	1.321
x2 = 0.9524	1.714	1.388

CNC(C)=O + CC(C)O
303.15 K, 101 kPa
Settings	viscosity [mPa·s]
x1 = 0.11	1.922
x1 = 0.2078	2.005
x1 = 0.3061	2.099
x1 = 0.3988	2.217
x1 = 0.4962	2.377
x1 = 0.5547	2.49
x1 = 0.6962	2.824
x1 = 0.8005	3.115
x1 = 0.8927	3.418

CC12CCC(CC1=O)C2(C)C (stereo not given) + CCCCCCCCCCO
101.33 kPa, x2 = 0.7
Settings	viscosity [mPa·s]
298.15 K	12.14
303.15 K	10.24
308.05 K	8.898
313.15 K	7.817
318.05 K	6.806
323.05 K	5.915

Cc1ccc([S@@](=O)O[C@@H]2C[C@H](C)CC[C@H]2C(C)C)cc1 + CCCCO
298 K, 101.3 kPa
Settings	viscosity [mPa·s]
x1 = 0.00223	2.53
x1 = 0.0043	2.548
x1 = 0.00647	2.573
x1 = 0.0087	2.586
x1 = 0.01163	2.628

Oc1ccc(Cl)cc1 + C[N+](C)(C)CCO.[Cl-]
Settings	viscosity
293.15 K, 101 kPa, x2 = 0.333	170.6 mPa·s
298.15 K, 101 kPa, x2 = 0.333	123.2 mPa·s
298.15 K, 101.33 kPa, x1 = 0.7	180.2 mPa·s
298.15 K, 101.33 kPa, x1 = 0.8	108.2 mPa·s and 77.89 mPa·s and 66.12 mPa·s
298.15 K, 101.33 kPa, x1 = 0.9	61.06 mPa·s
303.15 K, 101 kPa, x2 = 0.333	92.75 mPa·s
308.15 K, 101 kPa, x2 = 0.333	71.68 mPa·s
313.15 K, 101 kPa, x2 = 0.333	55.45 mPa·s
318.15 K, 101 kPa, x2 = 0.333	43.94 mPa·s
323.15 K, 101 kPa, x2 = 0.333	35.45 mPa·s

CCOCCO + Cc1ccc(C)cc1
viscosity [mPa·s], 101 kPa
Settings	298.15 K	308.15 K
x1 = 0.0551	0.632	0.555
x1 = 0.1489	0.672	0.584
x1 = 0.2499	0.725	0.625
x1 = 0.3507	0.792	0.674
x1 = 0.4514	0.875	0.735
x1 = 0.5001	0.922	0.769
x1 = 0.5497	0.975	0.808
x1 = 0.6526	1.106	0.9
x1 = 0.7513	1.262	1.01
x1 = 0.8499	1.456	1.143
x1 = 0.9549	1.717	1.319

CCOCCO + OCCOCCOCCO
101 kPa
Settings	viscosity [mPa·s]
293.15 K, x1 = 0.0493	36.7
293.15 K, x1 = 0.1039	32.11
293.15 K, x1 = 0.1964	25.21
293.15 K, x1 = 0.3004	18.99
293.15 K, x1 = 0.3949	14.53
293.15 K, x1 = 0.4468	12.49
293.15 K, x1 = 0.5005	10.66
293.15 K, x1 = 0.5512	9.194
293.15 K, x1 = 0.6003	7.883
293.15 K, x1 = 0.7017	5.752
293.15 K, x1 = 0.7946	4.246
293.15 K, x1 = 0.9032	2.957
293.15 K, x1 = 0.941	2.603
298.15 K, x1 = 0.0425	31.4
298.15 K, x1 = 0.1132	26.58
298.15 K, x1 = 0.198	21.56
298.15 K, x1 = 0.2956	16.85
298.15 K, x1 = 0.3992	12.84
298.15 K, x1 = 0.4535	11.09
298.15 K, x1 = 0.5008	9.696
298.15 K, x1 = 0.5433	8.635
298.15 K, x1 = 0.5935	7.463
298.15 K, x1 = 0.69	5.545
298.15 K, x1 = 0.8038	3.871
298.15 K, x1 = 0.8966	2.774
298.15 K, x1 = 0.95	2.248
303.15 K, x1 = 0.0543	26.39
303.15 K, x1 = 0.0954	24.22
303.15 K, x1 = 0.2034	19.01
303.15 K, x1 = 0.2991	15.11
303.15 K, x1 = 0.4003	11.78
303.15 K, x1 = 0.4492	10.39
303.15 K, x1 = 0.5007	9.084
303.15 K, x1 = 0.5429	8.086
303.15 K, x1 = 0.5978	6.967
303.15 K, x1 = 0.6987	5.187
303.15 K, x1 = 0.8008	3.732
303.15 K, x1 = 0.9005	2.597
303.15 K, x1 = 0.95	2.081
